Experimental data: patent US11655247B2, “Nanoluc suicide substrates” (PROMEGA CORPORATION, priority 2018, dated 2023)
Entries after “also recorded” stand apart in the source; their conditions may differ.

How the values were obtained:
NanoLuc [1] = target: T1, NanoLuc (Oplophorus gracilirostris, UniProt Q9GV45, A31E/A60N/A81I/F95D/I117V/K70R/L54V/L99Q/M102K/N193R/P142E/Q151K/Q38R/Q45L/V71I/Y165I); format: biochemical; conditions: relative value, Furimazine set to 1; NanoLuc; read three minutes after substrate addition
T1 sequence (Q9GV45 28-196 with tags or gaps with the stated changes limits assumed): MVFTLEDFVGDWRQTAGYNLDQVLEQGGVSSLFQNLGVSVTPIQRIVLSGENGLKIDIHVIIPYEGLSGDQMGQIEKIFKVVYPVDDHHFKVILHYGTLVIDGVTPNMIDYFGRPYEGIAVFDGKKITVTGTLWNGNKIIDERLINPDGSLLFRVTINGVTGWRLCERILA
Description: Luminescence Assay Procedure:
Each compound to be screened was dissolved in DMSO (5 mM) and then further diluted to 100 μM in NANO-GLO® Luciferase Assay Buffer. Km values were determined by first serially diluting substrates two-fold into NANO-GLO® Luciferase Assay Buffer. Substrate dilutions were then combined with an equal volume of NanoLuc diluted to 4 ng/ml in TBS+0.01% BSA. Autoluminescence was measured by combining the 100 uM dilution of substrate with TBS+0.01% BSA. Luminescence and autoluminescence values were measured in a GloMax®-Multi+ luminometer three minutes after substrate addition. Signal decay was measured by combining equal volumes of 100 uM of substrate with 4 ng/ml NanoLuc in TBS+0.01% BSA and then samples were read in five minute intervals for two hours using a GloMax®-Multi+. Km was calculated using GraphPad Prism using nonlinear Michaelis-Menten regression. Signal half-life values were calculated using GraphPad Prism Non-linear decay, plateau set to zero.

NanoLuc [2] = target: T1, NanoLuc; assay: Inhibition of NanoLuc luciferase: blocking of furimazine luminescence after pre-incubation; format: biochemical; conditions: for Inhibition of NanoLuc (bioluminescence upon later furimazine addition): compound incubated with NanoLuc first, then furimazine (10 μM) added
Description: Compounds were also tested for their ability to block furimazine luminescence with NanoLuc. Typically, NanoLuc (0.4 μg/mL) in DMEM was incubated with either furimazine or test compound (50 μM) while monitoring RLU's with a GloMax® luminometer for 10-60 minutes. After the set time, the plate was removed from the instrument, and a dose of furimazine (10 μM) was added to the well containing the test compound and monitored for 10-60 minutes.
FIGS. 3A-B depicts inhibition of Nluc luciferase by furimazine-h. Furimazine-h (10 μM) was incubated with NanoLuc in NanoGlo or DMEM for 15 or 10 minutes, respectively. This bright signal rapidly degrades to a fraction of the signal observed in the furimazine positive control wells.
FIG. 9 depicts inhibition of Nluc luciferase by furimazine-h. This is a reverse addition experiment as compared to FIG. 3. Furimazine (10 μM) was incubated with NanoLuc in NanoGlo® buffer for 15 minutes.
JRW-0855 and JRW-1088 were incubated with NanoLuc in DMEM for 12 minutes. […] After the incubation period, 10 μM furimazine was added to the well.

[3] = target: NanoBiT™ Binary luciferase (Oplophorus gracilirostris, UniProt Q9GV45, A31E/A60N/A81I/F95D/I117V/K70R/L54V/L99Q/M102K/P142E/Q151K/Q38R/Q45L/V71I/Y165I); assay: Inhibition of NanoBiT Binary luciferase (HiBiT + LgBiT); format: biochemical
Chain of NanoBiT™ Binary luciferase (Q9GV45 other isoform, or with tags, fused parts or gaps with the stated changes): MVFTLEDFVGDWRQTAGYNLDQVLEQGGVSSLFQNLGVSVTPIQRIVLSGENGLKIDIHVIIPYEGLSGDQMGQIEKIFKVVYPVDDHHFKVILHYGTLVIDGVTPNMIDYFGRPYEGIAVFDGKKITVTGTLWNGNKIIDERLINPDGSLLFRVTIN
Description: Compounds were also tested for their ability to inhibit the NanoBiT™ Binary luciferase. HiBiT (SEQ ID NO: 3) and LgBiT (SEQ ID NO: 4) (two subunits of the NanoBiT™ luciferase) were incubated with furimazine or furimazine-h for 15 minutes. Following the incubation period, 10 μM furimazine was added. […] This signal rapidly degrades to a fraction of the signal observed in the furimazine positive control wells. Addition of furimazine to the furimazine positive control wells results in an increase in bioluminescence.

[4] = system: NanoLuc-HaloTag (Nluc-HT); assay: Fluorescent labeling of NanoLuc-HaloTag, SDS/PAGE fluorescence imaging; format: biochemical; conditions: 0.5 μM protein, 50 μM label, 30 minutes, room temperature
Description: The efficiency of the NanoLuc suicide substrates was compared with a chloroalkane-FAM substrate with a fusion protein in which the HaloTag protein (SEQ ID NO: 5) is fused to either glutathione transferase (GST) or NanoLuc.
Either FAM chloroalkane or coelenterazine FAM substrate was incubated with glutathione transferase-HaloTag (GST-HT) or NanoLuc-HaloTag (Nluc-HT) fusions. The reactions were with 0.5 μM protein (GST-HT or Nluc-HT) and 50 μM of label (100× excess of label) and incubated for 30 minutes at room temperature. The sample titrations of each sample were then loaded to the SDS/PAGE gel. The fluorescence (473ex) (Cy2 filter set) was read and quantified. […] Results are quantified in FIG. 8B.

[5] = Stability in solution noted at preparation; format: physicochemical; conditions: note at preparation
[6] = system: NanoLuc-HaloTag fusion protein; assay: Direct and two-step labeling with TCO-tetrazine or DBCO-azide pair, fluorescence imaging on SDS/PAGE gel; format: biochemical; conditions: for Two-step labeling with tetrazine-FAM (JRW-1577): second step tetrazine-FAM (JRW-1577)
Description: Similar to the previous example, NanoLuc-HaloTag protein was incubated with compounds to either directly label or label via the two-step process with FAM. Compounds were incubated with the NanoLuc-HaloTag fusion protein and analyzed by florescence imaging on SDS/PAGE gel.

| Structure (SMILES) | RLU (at 100 μM) (NanoLuc [1]) | Inhibition of NanoLuc (bioluminescence upon later furimazine addition) (NanoLuc [2]) | Stability in solution [5] | also measured |
| --- | --- | --- | --- | --- |
| O=c1c(Cc2ccco2)nc2c(Cc3ccccc3)[nH]c(-c3ccc(O)cc3)cn1-2 [Furimazine-h, 8-benzyl-2-(furan-2-ylmethyl)-6-(4-hydroxyphenyl)imidazo[1,2-a]pyrazin-3(7H)-one, reference compound] | 1 | NanoLuc is inhibited; also recorded: exemplary suicide substrates of NanoLuc | – | Inhibition of NanoLuc, reverse addition (NanoLuc [2]; furimazine (10 μM) with NanoLuc in NanoGlo buffer 15 minutes, then compound added): rapid signal decay; Inhibition of NanoBiT luciferase ([3]; 15 minutes incubation, then 10 μM furimazine added): effectively inhibited; Initial luminescent signal compared with furimazine ([3]; HiBiT and LgBiT incubated with compound): comparable to that of furimazine |
| O=C(NCCCCCCCCOc1ccc(Cc2nc3c(Cc4ccccc4)[nH]c(-c4ccc(O)cc4)cn-3c2=O)cc1F)c1ccc(C(=O)[O-])c(-c2c3ccc(O)cc3[o+]c3cc(O)ccc23)c1 [JRW-0906, 4-((8-(4-((8-benzyl-6-(4-hydroxyphenyl)-3-oxo-3,7-dihydroimidazo[1,2-a]pyrazin-2-yl)methyl)-2-fluorophenoxy)octyl)carbamoyl)-2-(3,6-dihydroxyxanthylium-9-yl)benzoate] | 0.036 | exemplary suicide substrates of NanoLuc | – | Labeling efficiency relative to the chloroalkane-HT system [4]: ~50% |
| CN(C)c1ccc2c(-c3cc(C(=O)NCCCCCCCCOc4ccc(Cc5nc6c(Cc7ccccc7)[nH]c(-c7ccc(O)cc7)cn-6c5=O)cc4F)ccc3C(=O)[O-])c3ccc(N(C)C)cc3[o+]c2c1 [JRW-0912, 4-((8-(4-((8-benzyl-6-(4-hydroxyphenyl)-3-oxo-3,7-dihydroimidazo[1,2-a]pyrazin-2-yl)methyl)-2-fluorophenoxy)octyl)carbamoyl)-2-(3,6-bis(dimethylamino)xanthylium-9-yl)benzoate] | 0.000061 | did not inhibit NanoLuc | instability in solution | – |
| CN(C)c1ccc2c(-c3cc(C(=O)NCCOCCOCCC(=O)NCCCCCCCCOc4ccc(Cc5cc6c(Cc7ccccc7)[nH]c(-c7ccc(O)cc7)cn-6c5=O)cc4F)ccc3C(=O)[O-])c3ccc(N(C)C)cc3[o+]c2c1 [JRW-0927, 4-((2-(2-(3-((8-(4-((1-benzyl-3-(4-hydroxyphenyl)-6-oxo-2,6-dihydropyrrolo[1,2-a]pyrazin-7-yl)methyl)-2-fluorophenoxy)octyl)amino)-3-oxopropoxy)ethoxy)ethyl)carbamoyl)-2-(3,6-bis(dimethylamino)xanthylium-9-yl)benzoate] | 0.0000024 | did not inhibit NanoLuc | instability in solution | – |
| CC(=O)Oc1ccc2c(c1)Oc1cc(OC(C)=O)ccc1C21OC(=O)c2ccc(C(=O)NCCCCCCCCOc3ccc(Cc4nc5c(Cc6ccccc6)[nH]c(-c6ccc(O)cc6)cn-5c4=O)cc3F)cc21 [JRW-0972, 6-((8-(4-((8-benzyl-6-(4-hydroxyphenyl)-3-oxo-3,7-dihydroimidazo[1,2-a]pyrazin-2-yl)methyl)-2-fluorophenoxy)octyl)carbamoyl)-3-oxo-3H-spiro[isobenzofuran-1,9′-xanthene]-3′,6′-diyl diacetate] | 0.00005 | did not inhibit NanoLuc | instability in solution | – |
| COc1cc2c(c(Cl)c1OC(C)=O)Oc1c(cc(OC)c(OC(C)=O)c1Cl)C21OC(=O)c2ccc(C(=O)NCCCCCCCCOc3ccc(Cc4nc5c(Cc6ccccc6)[nH]c(-c6ccc(O)cc6)cn-5c4=O)cc3F)cc21 [JRW-0986, 6-((8-(4-((8-benzyl-6-(4-hydroxyphenyl)-3-oxo-3,7-dihydroimidazo[1,2-a]pyrazin-2-yl)methyl)-2-fluorophenoxy)octyl)carbamoyl)-4′,5′-dichloro-2′,7′-dimethoxy-3-oxo-3H-spiro[isobenzofuran-1,9′-xanthene]-3′,6′-diyl diacetate] | 0.00005 | did not inhibit NanoLuc | instability in solution | – |
| [N-]=[N+]=NCCCCCCCCOc1ccc(Cc2nc3c(Cc4ccccc4)[nH]c(-c4ccc(O)cc4)cn-3c2=O)cc1F [JRW-1022, 2-(4-((8-azidooctyl)oxy)-3-fluorobenzyl)-8-benzyl-6-(4-hydroxyphenyl)imidazo[1,2-a]pyrazin-3(7H)-one] | – | partial Nluc inhibitors | – | Two-step labeling with DBCO-FAM ([6]; second step DBCO-FAM): two-step labeling occurs |
| O=C(CCC(=O)N1Cc2ccccc2C#Cc2ccccc21)NCCCCCCCCOc1ccc(Cc2nc3c(Cc4ccccc4)[nH]c(-c4ccc(O)cc4)cn-3c2=O)cc1F [JRW-1549, N^1-(8-(4-((8-benzyl-6-(4-hydroxyphenyl)-3-oxo-3,7-dihydroimidazo[1,2-a]pyrazin-2-yl)methyl)-2-fluorophenoxy)octyl)-N^4-DBCO-succinamide] | – | – | – | Two-step labeling with Azide-FAM ([6]; second step Azide-FAM): little to no labeling |
| O=C(NCCCCCCCCOc1ccc(Cc2nc3c(Cc4ccccc4)[nH]c(-c4ccc(O)cc4)cn-3c2=O)cc1F)OC1CC/C=C/CCC1 (stereo not shown) [JRW-1566, (E)-cyclooct-4-en-1-yl (8-(4-((8-benzyl-6-(4-hydroxyphenyl)-3-oxo-3,7-dihydroimidazo[1,2-a]pyrazin-2-yl)methyl)-2-fluorophenoxy)octyl)carbamate] | – | – | – | Two-step labeling with tetrazine-FAM (JRW-1577) [6]: two-step labeling of NanoLuc |
| O=C(NCCOCCOCCCCCCCl)OC1CC/C=C/CCC1 (stereo not shown) [JRW-1567, (E)-cyclooct-4-en-1-yl (2-(2-((6-chlorohexyl)oxy)ethoxy)ethyl)carbamate] | – | – | – | Two-step labeling with tetrazine-FAM (JRW-1577) [6]: two-step labeling occurs |
